Results on 15 molecules are retold here after US10472347B2, “Aminopyrazine compounds with A2A antagonist properties” (Merck Sharp & Dohme Corp., priority 2014, dated 2019).

Structures are written as SMILES.

The experiment deals with T1, human A2a receptor (Homo sapiens, UniProt P29274).
T1 construct: purchased Perkin-Elmer RBHA2AM400UA; host or cells: HEK293 cells (membranes)
Briefly: A2a competition binding assay, Scintillation Proximity technology. The following applies: membranes from HEK293 cells expressing human A2a receptor; Ki by Cheng-Prusoff equation. In short, it runs like this: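 SPA competition: 0.5 nM tritiated pyrazolotriazolopyrimidine ligand displaced by compound at 3000 to 0.15 nM, 1 h room temperature, human A2a HEK293 membranes pretreated with adenosine deaminase, PBS/10 mM MgCl2 buffer. CGS15943 1 μM defined non-specific binding; EC50 converted to Ki via Cheng-Prusoff.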

T1 sequence (P29274 whole entry): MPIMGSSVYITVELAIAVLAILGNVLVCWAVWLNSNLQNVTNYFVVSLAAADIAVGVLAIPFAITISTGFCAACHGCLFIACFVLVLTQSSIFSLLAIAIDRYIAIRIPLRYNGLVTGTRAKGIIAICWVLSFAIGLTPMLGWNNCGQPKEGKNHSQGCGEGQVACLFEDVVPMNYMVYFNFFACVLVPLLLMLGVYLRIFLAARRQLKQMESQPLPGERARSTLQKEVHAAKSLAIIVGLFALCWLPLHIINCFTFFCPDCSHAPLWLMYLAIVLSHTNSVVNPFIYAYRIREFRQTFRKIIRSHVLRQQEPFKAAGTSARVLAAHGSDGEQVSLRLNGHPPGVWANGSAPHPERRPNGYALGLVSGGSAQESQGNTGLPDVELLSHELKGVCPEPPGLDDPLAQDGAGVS

The molecule `Cc1nc(C(=O)NCc2ccc3c(n2)NCCC3)c(N)nc1-c1ncco1` [Ex-98, 3-amino-6-methyl-5-(1,3-oxazol-2-yl)-N-(5,6,7,8-tetrahydro-1,8-naphthyridin-2-ylmethyl)pyrazine-2-carboxamide] had an inhibition constant (Ki) of 2.93 nM.

`Cc1nc(C(=O)NCc2ccc[n+]([O-])c2)c(N)nc1-c1ncco1` [Ex-99, 3-amino-6-methyl-5-(1,3-oxazol-2-yl)-N-[(1-oxidopyridin-3-yl)methyl]pyrazine-2-carboxamide] returned an inhibition constant Ki of 208 nM.

`Cc1nc(C(=O)NCc2ncn(CC3CC3)c2C)c(N)nc1-c1ncco1` [Ex-100, 3-amino-N-{[1-(cyclopropylmethyl)-5-methyl-1H-imidazol-4-yl]methyl}-6-methyl-5-(1,3-oxazol-2-yl)pyrazine-2-carboxamide] yielded a Ki of 110 nM.

`Cc1nc(C(=O)N[C@H]2CC[C@@H](C(F)(F)F)CC2)c(N)nc1-c1ncco1` [Ex-101, 3-amino-6-methyl-5-(1,3-oxazol-2-yl)-N-[cis-4-(trifluoromethyl)cyclohexyl] pyrazine-2-carboxamide] yielded a Ki of 12.9 nM.

The molecule `Cc1ccc2nc(CNC(=O)c3nc(C)c(-c4ncco4)nc3N)cn2c1` [Ex-102, 3-amino-6-methyl-N-[(6-methylimidazo[1,2-a]pyridin-2-yl)methyl]-5-(1,3-oxazol-2-yl)pyrazine-2-carboxamide] came in with a Ki of 11.9 nM.

Regarding `Cc1nc(C(=O)NCc2n[nH]c3c2CCC3)c(N)nc1-c1ncco1` [Ex-103, 3-amino-6-methyl-5-(1,3-oxazol-2-yl)-N-(1,4,5,6-tetrahydrocyclopenta[c]pyrazol-3-ylmethyl)pyrazine-2-carboxamide], the Ki came to 0.353 nM.

The molecule `Cc1nc(C(=O)N(C)C(C)c2ccccn2)c(N)nc1-c1ncco1` (stereo not drawn) [Ex-106, 3-amino-N,6-dimethyl-5-(1,3-oxazol-2-yl)-N-(1-pyridin-2-ylethyl)pyrazine-2-carboxamide] came in with a Ki of 252 nM.

`Cc1cc(F)cnc1CNC(=O)c1nc(C)c(-c2ncco2)nc1N` [Ex-107, 3-amino-N-[(5-fluoro-3-methylpyridin-2-yl)methyl]-6-methyl-5-(1,3-oxazol-2-yl)pyrazine-2-carboxamide]: the affinity corresponds to a Ki of 1.15 nM.

As for `Cc1nc(C(=O)NCc2nccc(C(F)(F)F)n2)c(N)nc1-c1ncco1` [Ex-108, 3-amino-6-methyl-5-(1,3-oxazol-2-yl)-N-{[4-(trifluoromethyl)pyrimidin-2-yl]methyl}pyrazine-2-carboxamide], the Ki was 6.58 nM.

Molecule `Cc1nc(C(=O)NCc2ncc(F)cn2)c(N)nc1-c1ncco1` [Ex-109, 3-amino-N-[(5-fluoropyrimidin-2-yl)methyl]-6-methyl-5-(1,3-oxazol-2-yl)pyrazine-2-carboxamide] had a Ki of 15 nM.

As to `COc1ccnc(CNC(=O)c2nc(C)c(-c3ncco3)nc2N)n1` [Ex-110, 3-amino-N-[(4-methoxypyrimidin-2-yl)methyl]-6-methyl-5-(1,3-oxazol-2-yl)pyrazine-2-carboxamide], the Ki was determined as 1.32 nM.

The molecule `Cc1ccn2cc(CNC(=O)c3nc(C)c(-c4ncco4)nc3N)nc2c1` [Ex-111, 3-amino-6-methyl-N-[(7-methylimidazo[1,2-a]pyridin-2-yl)methyl]-5-(1,3-oxazol-2-yl)pyrazine-2-carboxamide] had a Ki of 82.2 nM.

As for `Cc1nc(C(=O)NCC(=O)c2ccc(F)cc2)c(N)nc1-c1ncco1` [Ex-112, 3-amino-N-[2-(4-fluorophenyl)-2-oxoethyl]-6-methyl-5-(1,3-oxazol-2-yl)pyrazine-2-carboxamide], affinity was put at a Ki of 14.5 nM.

For the molecule `Cc1nc(C(=O)NCCCN2CCC(F)(F)C2)c(N)nc1-c1ncco1` [Ex-113, 3-amino-N-[3-(3,3-difluoropyrrolidin-1-yl)propyl]-6-methyl-5-(1,3-oxazol-2-yl)pyrazine-2-carboxamide], the Ki was determined as 30.2 nM.

As to `Cc1nc(C(=O)NCc2cn(CC3CC3)cn2)c(N)nc1-c1ncco1` [Ex-114, 3-amino-N-{[1-(cyclopropylmethyl)-1H-imidazol-4-yl]methyl}-6-methyl-5-(1,3-oxazol-2-yl)pyrazine-2-carboxamide], the Ki worked out at 5.76 nM.

In general, Ki refers to the dissociation constant of the complex between target and ligand, obtained from inhibition or displacement. Low values mean a stronger hold on the target, high ones a looser hold on the target.
